Source: PubChem BioAssay (NCI)
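Tested at 5 concentrations; 48 h exposure; 96-well plates; endpoints linearly interpolated, else capped at highest concentration. Definition used: TGI = concentration required for complete inhibition of growth.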

Columns and labels:
Assay in all cases: DTP human tumour cell line panel, 48 h
786-0 renal = test system: 786-0 renal
A549 NSCLC = test system: A549 NSCLC
ACHN renal = test system: ACHN renal
CCRF-CEM leukemia = test system: CCRF-CEM leukemia
COLO 205 colon = test system: COLO 205 colon
DMS 114 small cell lung = test system: DMS 114 small cell lung
DMS 273 small cell lung = test system: DMS 273 small cell lung
EKVX NSCLC = test system: EKVX NSCLC
HCT-116 colon = test system: HCT-116 colon
HCT-15 colon = test system: HCT-15 colon
HL-60(TB) leukemia = test system: HL-60(TB) leukemia
HOP-18 NSCLC = test system: HOP-18 NSCLC
HOP-62 NSCLC = test system: HOP-62 NSCLC
HT29 colon = test system: HT29 colon
K-562 leukemia = test system: K-562 leukemia
KM12 colon = test system: KM12 colon
KM20L2 colon = test system: KM20L2 colon
LOX IMVI melanoma = test system: LOX IMVI melanoma
LXFL 529 NSCLC = test system: LXFL 529 NSCLC
M14 melanoma = test system: M14 melanoma
M19-MEL melanoma = test system: M19-MEL melanoma
MALME-3M melanoma = test system: MALME-3M melanoma
MOLT-4 leukemia = test system: MOLT-4 leukemia
NCI-H226 lung = test system: NCI-H226 lung
NCI-H23 lung = test system: NCI-H23 lung
NCI-H460 lung = test system: NCI-H460 lung
NCI-H522 lung = test system: NCI-H522 lung
OVCAR-4 ovarian = test system: OVCAR-4 ovarian
OVCAR-8 ovarian = test system: OVCAR-8 ovarian
RPMI-8226 leukemia = test system: RPMI-8226 leukemia
RXF 393 renal = test system: RXF 393 renal
SF-268 CNS = test system: SF-268 CNS
SF-295 CNS = test system: SF-295 CNS
SK-MEL-2 melanoma = test system: SK-MEL-2 melanoma
SK-MEL-28 melanoma = test system: SK-MEL-28 melanoma
SK-MEL-5 melanoma = test system: SK-MEL-5 melanoma
SK-OV-3 ovarian = test system: SK-OV-3 ovarian
SN12C renal = test system: SN12C renal
SNB-19 CNS = test system: SNB-19 CNS
SNB-75 CNS = test system: SNB-75 CNS
SNB-78 CNS = test system: SNB-78 CNS
SR leukemia = test system: SR leukemia
SW-620 colon = test system: SW-620 colon
TK-10 renal = test system: TK-10 renal
U251 CNS = test system: U251 CNS
UACC-257 melanoma = test system: UACC-257 melanoma
UACC-62 melanoma = test system: UACC-62 melanoma
UO-31 renal = test system: UO-31 renal
XF 498 CNS = test system: XF 498 CNS
CAKI-1 renal = test system: CAKI-1 renal
DLD-1 colon = test system: DLD-1 colon
HOP-92 NSCLC = test system: HOP-92 NSCLC
IGROV1 ovarian = test system: IGROV1 ovarian
OVCAR-3 ovarian = test system: OVCAR-3 ovarian
OVCAR-5 ovarian = test system: OVCAR-5 ovarian
SF-539 CNS = test system: SF-539 CNS

CCCC(=O)Nc1ccc(O)c2c1C1CCCCCC21 (stereo not drawn)
TGI (786-0 renal): > 100 µM | TGI (A549 NSCLC): > 100 µM | TGI (ACHN renal): > 100 µM | TGI (CCRF-CEM leukemia): > 100 µM | TGI (COLO 205 colon): > 100 µM | TGI (DMS 114 small cell lung): > 100 µM | TGI (DMS 273 small cell lung): > 100 µM | TGI (EKVX NSCLC): > 100 µM | TGI (HCT-116 colon): > 100 µM | TGI (HCT-15 colon): > 100 µM | TGI (HL-60(TB) leukemia): > 100 µM | TGI (HOP-18 NSCLC): > 100 µM | TGI (HOP-62 NSCLC): > 100 µM | TGI (HT29 colon): > 100 µM | TGI (K-562 leukemia): > 100 µM | TGI (KM12 colon): > 100 µM | TGI (KM20L2 colon): > 100 µM | TGI (LOX IMVI melanoma): > 100 µM | TGI (LXFL 529 NSCLC): > 100 µM | TGI (M14 melanoma): > 100 µM | TGI (M19-MEL melanoma): > 100 µM | TGI (MALME-3M melanoma): > 100 µM | TGI (MOLT-4 leukemia): > 100 µM | TGI (NCI-H226 lung): > 100 µM | TGI (NCI-H23 lung): > 100 µM | TGI (NCI-H460 lung): > 100 µM | TGI (NCI-H522 lung): > 100 µM | TGI (OVCAR-4 ovarian): > 100 µM | TGI (OVCAR-8 ovarian): > 100 µM | TGI (RPMI-8226 leukemia): > 100 µM | TGI (RXF 393 renal): > 100 µM | TGI (SF-268 CNS): > 100 µM | TGI (SF-295 CNS): > 100 µM | TGI (SK-MEL-2 melanoma): > 100 µM | TGI (SK-MEL-28 melanoma): > 100 µM | TGI (SK-MEL-5 melanoma): > 100 µM | TGI (SK-OV-3 ovarian): > 100 µM | TGI (SN12C renal): > 100 µM | TGI (SNB-19 CNS): > 100 µM | TGI (SNB-75 CNS): > 100 µM | TGI (SNB-78 CNS): > 100 µM | TGI (SR leukemia): > 100 µM | TGI (SW-620 colon): > 100 µM | TGI (TK-10 renal): > 100 µM | TGI (U251 CNS): > 100 µM | TGI (UACC-257 melanoma): > 100 µM | TGI (UACC-62 melanoma): > 100 µM | TGI (UO-31 renal): > 100 µM | TGI (XF 498 CNS): > 100 µM

Cn1cc(NC(=O)c2cc(NC(=O)CCCCCCCCCC(=O)Nc3cc(C(=O)Nc4cc(C(=O)NCCC(=N)N)n(C)c4)n(C)c3)cn2C)cc1C(=O)NCCC(=N)N
TGI (786-0 renal): 93.3 µM | TGI (A549 NSCLC): 57.1 µM | TGI (ACHN renal): 73.3 µM | TGI (CAKI-1 renal): > 100 µM | TGI (CCRF-CEM leukemia): 69.2 µM | TGI (COLO 205 colon): > 100 µM | TGI (DLD-1 colon): > 100 µM | TGI (DMS 114 small cell lung): > 100 µM | TGI (DMS 273 small cell lung): > 100 µM | TGI (EKVX NSCLC): 83.1 µM | TGI (HCT-116 colon): > 100 µM | TGI (HCT-15 colon): > 100 µM | TGI (HOP-18 NSCLC): 96.1 µM | TGI (HOP-62 NSCLC): 81.3 µM | TGI (HOP-92 NSCLC): 65.5 µM | TGI (HT29 colon): 46.2 µM | TGI (IGROV1 ovarian): > 100 µM | TGI (K-562 leukemia): > 100 µM | TGI (KM12 colon): 31.7 µM | TGI (KM20L2 colon): > 100 µM | TGI (LOX IMVI melanoma): 83.5 µM | TGI (LXFL 529 NSCLC): > 100 µM | TGI (M14 melanoma): 70.1 µM | TGI (M19-MEL melanoma): > 100 µM | TGI (MALME-3M melanoma): 26.7 µM | TGI (MOLT-4 leukemia): 82.1 µM | TGI (NCI-H226 lung): > 100 µM | TGI (NCI-H23 lung): > 100 µM | TGI (NCI-H460 lung): > 100 µM | TGI (NCI-H522 lung): > 100 µM | TGI (OVCAR-3 ovarian): 35.1 µM | TGI (OVCAR-4 ovarian): > 100 µM | TGI (OVCAR-5 ovarian): 66.4 µM | TGI (OVCAR-8 ovarian): 83.1 µM | TGI (RPMI-8226 leukemia): 54.9 µM | TGI (RXF 393 renal): > 100 µM | TGI (SF-268 CNS): 89.3 µM | TGI (SF-295 CNS): 75 µM | TGI (SF-539 CNS): > 100 µM | TGI (SK-MEL-2 melanoma): > 100 µM | TGI (SK-MEL-28 melanoma): 62.2 µM | TGI (SK-MEL-5 melanoma): > 100 µM | TGI (SK-OV-3 ovarian): > 100 µM | TGI (SN12C renal): > 100 µM | TGI (SNB-19 CNS): > 100 µM | TGI (SNB-75 CNS): 55.4 µM | TGI (SNB-78 CNS): > 100 µM | TGI (SW-620 colon): > 100 µM | TGI (TK-10 renal): 85.9 µM | TGI (U251 CNS): > 100 µM | TGI (UACC-257 melanoma): > 100 µM | TGI (UACC-62 melanoma): > 100 µM | TGI (UO-31 renal): > 100 µM | TGI (XF 498 CNS): 98.9 µM
